Assay: Solubility in an acidic environment
Format: physicochemical
Conditions: aqueous buffer

solubility: ~150 mg/mL
Structure (SMILES): C[C@@H]1NC(C)(C)CO[C@@]1(O)c1cccc(Cl)c1 [compound of formula (I), (+)-(2S,3S)-2-(3-chlorophenyl)-3,5,5-trimethyl-2-morpholinol]

Source: US20080008754A1, “Pharmaceutical Compositions Comprising (+)-(2S,3S)-2-(3-Chlorophenyl)-3,5,5-Trimethyl-2-Morpholinol” (SMITHKLINE BEECHAM CORPORATION, priority 2004, published 2008)
